Publication PMC9530242, “Cryo-EM structure-based selection of computed ligand poses enables design of MTA-synergic PRMT5 inhibitors of better potency” (Communications Biology, 2022)
Values joined by “and” are separate entries in the source; they are usually repeats but may differ in a detail not shown here. Identical values can stand only once. Like-named read-outs stand apart in the source and are kept apart here.

Assays:
PRMT5:MEP50 [1] = biological target: T1, PRMT5:MEP50 (Homo sapiens, UniProt O14744); experiment: Surface plasmon resonance (SPR) binding study
T1 construct: full-length human PRMT5 (residues 1–637, NP_006100); FLAG; made in house; host or cells: Sf9 insect cells (Bac-to-Bac baculovirus)
T1 sequence (O14744 whole entry, the tested form may be a part): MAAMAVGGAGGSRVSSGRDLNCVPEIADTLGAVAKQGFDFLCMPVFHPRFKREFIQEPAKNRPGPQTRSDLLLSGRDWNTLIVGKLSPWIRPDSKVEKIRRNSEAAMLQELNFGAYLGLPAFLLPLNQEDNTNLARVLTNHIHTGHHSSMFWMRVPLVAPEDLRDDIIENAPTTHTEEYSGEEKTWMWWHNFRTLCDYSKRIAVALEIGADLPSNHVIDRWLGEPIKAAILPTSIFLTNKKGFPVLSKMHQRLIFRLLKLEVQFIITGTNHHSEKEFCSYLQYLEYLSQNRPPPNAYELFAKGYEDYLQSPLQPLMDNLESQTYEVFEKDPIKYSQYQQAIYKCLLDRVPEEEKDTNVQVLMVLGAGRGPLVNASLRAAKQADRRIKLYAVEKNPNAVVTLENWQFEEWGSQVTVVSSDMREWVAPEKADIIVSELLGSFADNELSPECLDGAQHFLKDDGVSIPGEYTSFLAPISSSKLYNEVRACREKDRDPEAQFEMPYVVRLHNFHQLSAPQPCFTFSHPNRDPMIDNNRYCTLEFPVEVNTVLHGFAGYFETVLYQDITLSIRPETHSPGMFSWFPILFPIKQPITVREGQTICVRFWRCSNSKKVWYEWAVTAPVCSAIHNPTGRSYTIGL
T1 sequence (Q9BQA1 2-342 partner limits assumed): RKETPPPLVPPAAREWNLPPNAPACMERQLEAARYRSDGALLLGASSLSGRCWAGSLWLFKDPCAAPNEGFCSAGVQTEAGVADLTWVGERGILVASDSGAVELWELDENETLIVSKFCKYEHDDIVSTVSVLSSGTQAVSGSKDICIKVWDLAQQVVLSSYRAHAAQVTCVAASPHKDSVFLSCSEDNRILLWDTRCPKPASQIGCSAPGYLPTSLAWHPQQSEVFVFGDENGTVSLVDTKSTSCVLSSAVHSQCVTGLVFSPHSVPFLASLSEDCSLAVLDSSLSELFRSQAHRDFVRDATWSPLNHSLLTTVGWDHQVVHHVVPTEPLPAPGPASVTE
Protocol: PRMT5:MEP50 protein complex was prepared as described by Antonysamy, S., et al.[39]. Briefly, full-length human PRMT5 (residues 1–637, NP_006100) and human MEP50 (residues 2–342, NP_077007) were co-expressed in Sf9 cells using a Bac-to-Bac expression system (Invitrogen). The cells were harvested and lysed. After removal of cell debris, supernatants were collected for FLAG-affinity chromatography (Sigma; A2220) and fractionated by size exclusion chromatography in a 10/300 Superose 6 column (GE Life Sciences). The purified PRMT5:MEP50 complex was characterized by SDS-PAGE and sedimentation velocity analytical ultracentrifugation (SV-AUC) using a ProteomeLab™XL-I system (Beckman Coulter; Supplementary Fig. 1). Protein samples were concentrated to 12 mg/mL in a buffer containing 10 mM HEPES at pH 7.5, 150 mM NaCl, 10% (vol/vol) glycerol and 2.0 mM DTT and were stored at −80 °C until the time of use.
Binding affinity measurements were conducted in a Reichert2SPR instrument (Ametek) at 25 °C. PRMT5:MEP50 proteins were directly immobilized onto a 500,000 Da carboxymethyl dextran sensor chip at pH 5.5 using a standard amine-coupling approach. The small molecule analyte (11-2 F as an example) was injected at a flow rate of 30 μL/min of different concentrations in the running buffer (10 mM HEPES pH 7.4, 150 mM NaCl, 3.0 mM EDTA, 0.005% v/v Tween-20, and 5% DMSO). The association and dissociation times were set to be 1 min. […] The dissociation time for 11-2 F in MTA-containing running buffer was elongated to be 3 min to achieve complete dissociation. Sensorogram data were processed using the TraceDrawer software package to calculate the equilibrium dissociation constant KD, the association rate constant kon and the dissociation rate constant koff.

PRMT5:MEP50 [2] = biological target: T1, PRMT5:MEP50; experiment: MTase-Glo methyltransferase enzymatic inhibition assay (methylation of H4 peptide); assay type: biochemical; details: 100 nM PRMT5:MEP50, 10 µM SAM, 2 µM histone H4 peptide (1-21), n = 3
Protocol: Recombinant PRMT5:MEP50 was purified to biochemical homogeneity from sf9 cells (Supplementary Fig. 1). Inhibition of PRMT5 activity (methylation of H4 peptide) was monitored by measuring luminescence from a MTase-Glow detection reagent.
PRMT5:MEP50 protein complex was prepared as described by Antonysamy, S., et al.[39]. Briefly, full-length human PRMT5 (residues 1–637, NP_006100) and human MEP50 (residues 2–342, NP_077007) were co-expressed in Sf9 cells using a Bac-to-Bac expression system (Invitrogen). The cells were harvested and lysed. […]
11-2 F was serially diluted by 5-fold from 500 µM to 6.4 nM in DMSO then added into reaction buffer (30 mM Tris-HCl at pH 7.4, 500 mM NaCl, 2 mM MgCl2, 2 mM TCEP, 0.1% (wt/vol) BSA and 0.01% (vol/vol) Tween-20) with final DMSO concentration at 5% (vol/vol). […] After shaking for 2 min and incubation at room temperature for 30 min, 20 µl room temperature MTase-Glo Detection Solution was added and mixed well before incubation for another 30 min and luminescence recording. Luminescence was measured in a Synergy Neo2 HTS multimode microplate reader (BioTek). […] Data are analyzed in GraphPad Prism 8. For inhibitor studies, IC50 was determined by nonlinear regression (curve fitting) using the equation for the sigmoidal dose response (variable slope).

[3] = tested on: SDMA from PRMT5 activity in MDA-MB-231 cells; experiment: Cell-based assay of SDMA by western blotting (MTA-synergy in cultured cells); details: Homo sapiens, MDA-MB-231, 96 h, read-out: IC50, inhibition of SDMA production
Source text: The above analysis highlighted three principles that should be considered to enhance PRMT5 inhibition by 11-2F analogs. (1) It is important to retain the quinoline ring backbone to maintain the positive cooperativity with MTA. (2) The pi-stacking interactions of Trp579 and Phe327 with the quinoline ring may be enhanced to keep the inhibitor properly oriented, which could be achieved by introducing small groups (-F, or -CH3, or -NH3^+) to the ring. (3) The cyclo-alkylated indole ring of 11-2F is relatively flexible and may be stabilized by introducing H-bonds or electrostatic interactions with the binding pocket, especially with the residues on the flexible loop. […] Three 11-2F analogs predicted to have higher potency introduce more interactions with the binding pockets (Table 2; Supplementary Figs. 6–8, and Supplementary Tables 5–7). […] In the binding pocket, the 2,4-di-NH2-quinazoline of 11-9 F forms H-bonds with E444, E435, and S439, and its aromatic ring is sandwiched between the sidechains of Phe327 and Trp579. […]
MDA-MB-231 cells were seeded at 1.0 × 10^6 cells/dish and allowed to adhere overnight. […] The protein concentrations were determined using the BCA Protein Assay kit (Pierce #23227). […] After three washes with the TBST buffer, the membrane was analyzed using ECL Western blotting detection reagents (Pierce #34096) and imaged in a ChemiDoc MP imaging system (Bio-Rad). […]

Structure (SMILES)	apparent positive coupling coefficient between 11-2F and MTA (PRMT5:MEP50 [1]; KD without MTA vs with 25 μM MTA)	Kd (PRMT5:MEP50 [1]; PRMT5:MEP50 saturated with 25 μM MTA)	Kd (PRMT5:MEP50 [1]; PRMT5:MEP50 saturated with 25 μM SAH)	Kd (PRMT5:MEP50 [1]; PRMT5:MEP50 saturated with 25 μM SAM)	koff (PRMT5:MEP50 [1]; saturated with 25 μM MTA) [s⁻¹]	kon (PRMT5:MEP50 [1]; saturated with 25 μM MTA) [M⁻¹ s⁻¹]	koff (PRMT5:MEP50 [1]; saturated with 25 μM SAH) [s⁻¹]	kon (PRMT5:MEP50 [1]; saturated with 25 μM SAH) [M⁻¹ s⁻¹]	koff (PRMT5:MEP50 [1]; saturated with 25 μM SAM) [s⁻¹]	kon (PRMT5:MEP50 [1]; saturated with 25 μM SAM) [M⁻¹ s⁻¹]	Kd (PRMT5:MEP50 [1]; without MTA (no cofactor)) [nM]	koff (PRMT5:MEP50 [1]; without MTA (no cofactor)) [s⁻¹]	kon (PRMT5:MEP50 [1]; without MTA (no cofactor)) [M⁻¹ s⁻¹]	IC50 (PRMT5:MEP50 [2]; read-out: IC50, inhibition of PRMT5:MEP50 enzyme activity) [nM]	IC50 (PRMT5:MEP50 [2]; read-out: IC50, inhibition of PRMT5 enzyme activity) [nM]	IC50 ([3]; 0 μM additional MTA (black trace)) [nM]	IC50 ([3]; 5.0 μM MTA (red trace)) [nM]
Nc1ccc2ccc(CNC(=O)c3ccc4c(c3)c3c(n4CCO)CCCC3)cc2n1 [11-2F, N-[(2′-aminoquinoline)-7′-methyl]-[9-(2-hydroxyethyl)-5,6,7,8-tetrahydro-carbazole]-3-carboxamide]	~ 166	~82 nM and 82.1 nM	1600 nM and 1630 nM	380 nM and 375 nM	0.0202	246000	0.112	75700	0.019	50700	~13600	0.0844	6190	~730	730 ± 200		
CCn1c2c(c3cc(C(=O)NCc4ccc5c(N)nc(N)nc5c4)ccc31)CCCC2 [11-9F, N-[(2′,4′-diaminoquinazoline)-7′-methyl]-[9-ethyl-5,6,7,8-tetrahydro-carbazole]-3-carboxamide]																32400	2400
